The target in one test is Crk SH2 domain (Homo sapiens, UniProt P46108). The experiment in a line: SPOT peptide array. The class given is binding. The note with it: GST-SH2 0.25 μM, membrane-bound peptide, 1 mM DTT, LiCor read-out. The source says:
(§1) The use of addressable peptide arrays is a reproducible and semi-quantitative approach that has been extensively validated for studying protein interactions with peptide ligands. To investigate connections between SH2 domain proteins and their putative phosphorylated docking sites on cell surface receptors, we developed addressable arrays consisting of 192 phosphotyrosine peptides. This peptide set was assembled using 71 phosphotyrosine peptide motifs corresponding to all of the cytoplasmic tyrosine residues within the FGF receptors (FGFR1-4), insulin receptor (InsR) and IGF-1 receptor (IGF-1R) (Figure 1A). Activation of these receptors results in the phosphorylation of associated scaffold proteins, and so 75 phosphotyrosine peptides corresponding to a comprehensive list of tyrosine residues within insulin receptor substrates (IRS-1 and IRS-2) and fibroblast receptor substrates (FRS-2 and FRS-3) were included. In addition, 33 phosphotyrosine peptides were incorporated from the downstream signaling proteins PLC-γ1, p130Cas (BCAR1) and p62DOK1. […] These control peptides provide a reference and establish the empirical cut-off for designated binding interactions (Table 1). No discrimination was made against peptides on the basis of reported phosphorylation state in order to examine a diverse and unbiased set of motifs. The resulting set of 192 phosphotyrosine peptides and their corresponding position in the proteins of origin is noted in Additional file 1: Table S1. Addressable arrays were synthesized as membrane-bound 11-mer peptides using the SPOT synthesis technique. While the majority of SH2 domains recognize residues C-terminal to the phosphotyrosine in their cognate peptide ligands, additional contacts between SH2 domains and residues N-terminal to the phosphotyrosine are observed for the SH2 domain of Sh2d1a (SAP) and cannot be ruled out in other cases. Peptides were synthesized with six flanking residues C-terminal to the phosphotyrosine and four residues N-terminal to the phosphotyrosine.
(§2) SH2 domains were arrayed as GST fusion proteins and detected using anti-GST primary antibodies and near-infrared labeled secondary antibodies. In an effort to present a dataset with minimal false positives, we chose an empirical cutoff based on the array average across all peptide spots to classify interactions (Figure 1A). In cases where the intensity of the signal for an individual SH2-domain binding event exceeded the mean intensity of all the peptides on the membrane by three-fold were scored as “array positives” [22]. Non-binding was judged in cases where the intensity of a spot was less than the mean intensity of all spots on the membrane and these were scored as “array negatives”. Peptides with signal intensities between 1X and 3X mean were scored as “indeterminate” and ascribed as neither array positive binding interactions nor array-negative non-binders. […] This signature may be indicative of promiscuity differences between phosphopeptides or there may be a subset of peptides which interact in a nonspecific fashion with either the GST fusion tag or one of the antibodies used for detection, resulting in false positives. Consistent with our goal of reducing the errors associated with identifying false-positives, we probed three separate arrays with three separate preps of the GST fusion tag alone. Potentially non-specificly interacting peptides (so-called ‘sticky’ peptides) were identified as any that bound to GST with above mean intensity in two out of three separate trials. This approach identifies any peptides which interact with GST or either of the recognition antibodies, a known confounding factor for downstream analysis. This conservative approach allows us to score many significant peptides as ‘binders’ which may have been indeterminate before when incorporating the ‘sticky’ peptides into the array average. […]

The subject of another test is panel of 50 SH2 domains. Briefly: SPOT peptide array probed with each of 50 GST-SH2 domains. It counts as binding. The note with it: SH2 domains with intensity >3X array mean; GST-SH2 0.25 μM, 1 mM DTT. In a few lines: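 Each GST-fused SH2 domain was overlaid on 192 membrane-synthesized pTyr peptides (11-mers, 4 N-terminal and 6 C-terminal flanking residues) and read with anti-GST and near-infrared secondary antibodies. Binding called relative to membrane mean intensity (>3× positive, <1× negative); GST-only probes defined nonspecific peptides.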

For the next test, the target named is T1, Ptpn11_N SH2 domain (Homo sapiens, UniProt Q06124).
T1 sequence (Q06124 6-102 limits assumed): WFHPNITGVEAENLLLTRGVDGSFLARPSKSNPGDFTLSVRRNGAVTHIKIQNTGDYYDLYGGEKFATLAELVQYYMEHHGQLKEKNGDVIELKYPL
Also noted: method as in 5 sources, one per row (each row's own in cited_ref): ref [107] = [107]; PMID 8144631; Case RD Piccione E Wolf G Benett AM Lechleider RJ Neel BG Shoelson SE SH-PTP2/Syp SH2 domain binding specificity is defined by direct interactions with platelet-derived growth factor beta-receptor, ep ||| ref [107, 108] = [107]; PMID 8144631; Case RD Piccione E Wolf G Benett AM Lechleider RJ Neel BG Shoelson SE SH-PTP2/Syp SH2 domain binding specificity is defined by direct interactions with platelet-derived growth factor beta-receptor, ep || [108]; PMID 7504175; doi:10.1128/mcb.13.12.7418-7428.1993; Sun XJ Crimmins DL Myers MG Jr Miralpeix M White MF Pleiotropic insulin signals are engaged by multisite phosphorylation of IRS-1 Mol Cell Biol 1993 13 7418 7428 7504175 10.1128/mcb.13.12.7418-7428.19 ||| ref [95, 108, 110] = [95]; PMID 9422724; doi:10.1074/jbc.273.2.729; Ottinger EA Botfield MC Shoelson SE Tandem SH2 domains confer high specificity in tyrosine kinase signaling J Biol Chem 1998 273 729 735 9422724 10.1074/jbc.273.2.729 || [108]; PMID 7504175; doi:10.1128/mcb.13.12.7418-7428.1993; Sun XJ Crimmins DL Myers MG Jr Miralpeix M White MF Pleiotropic insulin signals are engaged by multisite phosphorylation of IRS-1 Mol Cell Biol 1993 13 7418 7428 7504175 10.1128/mcb.13.12.7418-7428.19 || [110]; PMID 9756938; doi:10.1074/jbc.273.41.26908; Myers MG Jr Mendez R Shi P Pierce JH Rhoads R White MF The COOH-terminal tyrosine phosphorylation sites on IRS-1 bind SHP-2 and negatively regulate insulin signaling J Biol Chem 1998 273 26908 26914 9 ||| ref 107 (IRS-1 Y896 also 108) ||| ref 95, 108, 110 = [95]; PMID 9422724; doi:10.1074/jbc.273.2.729; Ottinger EA Botfield MC Shoelson SE Tandem SH2 domains confer high specificity in tyrosine kinase signaling J Biol Chem 1998 273 729 735 9422724 10.1074/jbc.273.2.729 || [108]; PMID 7504175; doi:10.1128/mcb.13.12.7418-7428.1993; Sun XJ Crimmins DL Myers MG Jr Miralpeix M White MF Pleiotropic insulin signals are engaged by multisite phosphorylation of IRS-1 Mol Cell Biol 1993 13 7418 7428 7504175 10.1128/mcb.13.12.7418-7428.19 || [110]; PMID 9756938; doi:10.1074/jbc.273.41.26908; Myers MG Jr Mendez R Shi P Pierce JH Rhoads R White MF The COOH-terminal tyrosine phosphorylation sites on IRS-1 bind SHP-2 and negatively regulate insulin signaling J Biol Chem 1998 273 26908 26914 9. The note with it: ref 107 (IRS-1 Y896 also 108); read-out: Relative affinity (IC50); cited from earlier work.

For another test, the target named is Nck1 SH2 domain (Homo sapiens, UniProt P16333). The experiment in a line: SPOT peptide array. The class given is binding. The note with it: GST-SH2 0.25 μM; for Array positive: membrane-bound peptide, 1 mM DTT, LiCor read-out.
Description: as §1, §2

Another test concerns Plcγ-C SH2 domain. Briefly: SPOT peptide array. It counts as binding. The note with it: GST-SH2 0.25 μM; for Array positive: membrane-bound peptide, 1 mM DTT, LiCor read-out.
Description: as §1, §2

A further test concerns the target Grb2 SH2 domain (Homo sapiens, UniProt P62993). The experiment in a line: SPOT peptide array. It counts as binding. The note with it: GST-SH2 0.25 μM, membrane-bound peptide, 1 mM DTT, LiCor read-out.
Description: as §1, §2

Where [1] appears, read: spot intensity as factor of array mean.

Chain of Crk SH2 domain (P46108 13-118 limits assumed): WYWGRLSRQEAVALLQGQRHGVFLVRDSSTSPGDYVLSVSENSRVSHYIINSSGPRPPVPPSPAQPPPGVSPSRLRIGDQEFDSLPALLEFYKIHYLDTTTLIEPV
Chain of Grb2 SH2 domain (P62993 60-152 limits assumed): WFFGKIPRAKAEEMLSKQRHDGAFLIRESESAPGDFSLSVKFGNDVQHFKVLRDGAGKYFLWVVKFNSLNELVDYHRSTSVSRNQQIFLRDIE

Turning to “ATDDpYAVPPPR [11-mer phosphotyrosine peptide, p62DOK1 (Y409), similar to p130Cas (Y410)]”, the Array positive result at Crk SH2 domain is “Yes (Array-positive binding was ascribed to interactions with intensities greater than three times the array mean)”. Moreover, in the test with panel of 50 SH2 domains, the “Other SH2 domains bound (additional array-positive SH2 domains)” value (“Other SH2 domains bound” for short) is “Crkl, Hck”. As usually defined, the IC50 is the concentration that inhibits the measured activity by half. Regarding “DLSApYASISFQ (DLSAYASISFQ) [11-mer phosphotyrosine peptide, IRS-1 (Y1229)]”, the IC50 with Ptpn11_N SH2 domain is 25 ± 4.2 µM.

Consider “DPNGpYMMMSPS (DPNGYMMMSPS) [11-mer phosphotyrosine peptide, IRS-1 (Y662)]”, for which the IC50 with Ptpn11_N SH2 domain is 96 ± 13 µM. For the substance “EDLSpYGDVPPG [11-mer phosphotyrosine peptide, IRS-1 (Y151)]”, the Array positive entry at Nck1 SH2 domain is given as “No (Peptide spots with average intensity values between 1X-3X the array mean were defined as ‘indeterminate’. Those with intensities below 1X mean were defined as array negative)”. The “Peptide array intensity (X mean)” value on Nck1 SH2 domain (setting [1]) is 1.76 X Mean. For the same substance, in the test with panel of 50 SH2 domains, the “Other SH2 domains bound” value is on record as 1.76X Mean Abl1, Blk, Fyn, Lck, Lyn, Sh2d1b, Shc1, Ship2, Slnk, Yes. “ELSNpYICMGGK (ELSNYICMGGK) [11-mer phosphotyrosine peptide, IRS-1 (Y465)]”: the IC50 with Ptpn11_N SH2 domain is 48 ± 16 µM. Turning to “EQDEYDIPRHL [11-mer peptide, p130Cas (Y234)]”, the Array positive result at Crk SH2 domain is “Yes (Array-positive binding was ascribed to interactions with intensities greater than three times the array mean)”. Moreover, the “Other SH2 domains bound” value in the test on panel of 50 SH2 domains was “Brk, Crkl, Fyn, Lck, Lyn, Shc1, Yes”.

As to “GGEFpYGYMTMD [11-mer phosphotyrosine peptide, IRS-2 (Y540)]”, the Array positive entry in the test with Plcγ-C SH2 domain is “Yes (Array-positive binding was ascribed to interactions with intensities greater than three times the array mean)”. The “Other SH2 domains bound” value in the test with panel of 50 SH2 domains is listed as “Dapp1, Grb7”. On to “NKLVpYENINGL [11-mer phosphotyrosine peptide, FRS2 (Y306)]”, for which, at Grb2 SH2 domain, the Array positive entry is “Yes (Array-positive binding was ascribed to interactions with intensities greater than three times the array mean)”. Further, the “Other SH2 domains bound” value in the test with panel of 50 SH2 domains was “Grap, Grb7, Sh2d2a”. With “NPGFpYVEANPM [11-mer phosphotyrosine peptide, PLCγ1 (Y783)]”, the Array positive entry in the test with Plcγ-C SH2 domain is reported as “No (Peptide spots with average intensity values between 1X-3X the array mean were defined as ‘indeterminate’. Those with intensities below 1X mean were defined as array negative)”. Also, in the test on Plcγ-C SH2 domain (setting [1]), the “Peptide array intensity (X mean)” value was 1.03 X Mean. The “Other SH2 domains bound” value in the test on panel of 50 SH2 domains was “PLCγ_C at 1.03X mean; Zap70_N”. For the substance “PMHNpYVNTENV [11-mer phosphotyrosine peptide, FRS2 (Y392)]”, the Array positive result at Grb2 SH2 domain is “Yes (Array-positive binding was ascribed to interactions with intensities greater than three times the array mean)”. In addition, in the test with panel of 50 SH2 domains, the “Other SH2 domains bound” value was “Gads, Grap”. As for “PNGDpYLNVSPS [11-mer phosphotyrosine peptide, IRS-2 (Y766)]”, the Array positive entry at Grb2 SH2 domain is “Yes (Array-positive binding was ascribed to interactions with intensities greater than three times the array mean)”. In addition, the “Other SH2 domains bound” value in the test on panel of 50 SH2 domains is given as “Sh2d1b, Vav1”.

Consider “PQDIYDVPPVR [11-mer peptide, P130Cas (Y249)]”, for which the Array positive entry at Crk SH2 domain is reported as “Yes (Array-positive binding was ascribed to interactions with intensities greater than three times the array mean)”. For the same substance, the “Other SH2 domains bound” value in the test on panel of 50 SH2 domains is reported as “Crkl, Zap70_N”. For “QVHTpYVNTTGV [11-mer phosphotyrosine peptide, FRS2 (Y196)]”, the Array positive result on Grb2 SH2 domain is “Yes (Array-positive binding was ascribed to interactions with intensities greater than three times the array mean)”. In addition, the “Other SH2 domains bound” value in the test with panel of 50 SH2 domains was “Abl2, Gads, Grap, PI3K1_C”. As to “SDDDpYDDVDIP [11-mer phosphotyrosine control peptide, HPK1 (Y379), reference compound]”, the Array positive entry on Nck1 SH2 domain is “Yes (Array-positive binding was ascribed to interactions with intensities greater than three times the array mean)”. Besides, in the test on panel of 50 SH2 domains, the “Other SH2 domains bound” value is “Fer, SLNK (similar to BLNK and SLP76)”. “SIEEpYTEMMPA (SIEEYTEMMPA) [11-mer phosphotyrosine peptide, IRS-1 (Y551)]”: in the test with Ptpn11_N SH2 domain, the IC50 is 11 ± 1 µM. Regarding “TRDIpYETDpYpYR [triply phosphorylated peptide, InsR (Y1185,89,90)]”, in the test with Plcγ-C SH2 domain, the Array positive entry is “Yes (Array-positive binding was ascribed to interactions with intensities greater than three times the array mean)”. Moreover, the “Other SH2 domains bound” value in the test on panel of 50 SH2 domains was “Crk, Crkl, Fer, Grb7, PI3K1_C”.
